According to patent publication US20070225371A1, “Dermatological composition containing alkyl ureas” (priority 2006, published 2007):

How the values were obtained:
[1] = equal to about 36 to 42% by weight; cited from earlier work
RNase A = target: T1, RNase A (Bos taurus, UniProt P61823); test: Thermal denaturation of protein RNase A in urea or 1-butyl urea solution (Poklar et al.); assay type: biochemical; settings: for 0.7 M of 1-butyl urea; estimated from temperature profiles of conformational transition of RNase A
T1 sequence (P61823 27-150): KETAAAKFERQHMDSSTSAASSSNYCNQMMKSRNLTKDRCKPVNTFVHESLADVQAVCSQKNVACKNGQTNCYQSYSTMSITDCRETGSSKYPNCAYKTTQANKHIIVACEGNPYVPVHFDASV
Text: In their thermal denaturation studies of protein RNase A in alkyl urea solutions, Poklar et al., “Thermodynamic Stability of Ribonuclease A in Alkylurea Solutions and Preferential Solvation Changes Accompanying its Thermal Denaturation: A Calorimetric and Spectroscopic Study” in Protein Science, 8:832-840 (1999) report that the thermal stability of RNase A in solution decreases with increasing concentrations of denaturants and the size of the hydrophobic group substituted on the urea molecule.
Based on the temperature profiles of conformational transition (denaturation) of protein RNase A in urea or in 1-butyl urea solution, it can be estimated that 0.7 M of 1-butyl urea is equivalent to about 3.5 M of urea in terms of their protein denaturing capability. These studies provide a general guideline on estimating relative keratolytic activity of urea vs. 1-butyl urea in a dermatological composition.

Row | SMILES | concentration minimally needed to show any noticeable keratolytic or protein denaturing activity [1] [M] | urea concentration equivalent in protein denaturing capability (RNase A)
1 | NC(N)=O [urea] | 6 to 7 | 
2 | CCCCNC(N)=O [1-butyl urea] |  | about 3.5 M
